# Laboratory results published in PubChem BioAssay AID256 (DTP/NCI, 2004).
# Where “and” joins values, the source holds several entries; their conditions need not be identical. Identical values can stand only once. Toxic doses and inconclusive results are not listed.
# Tested on: CD2F1 mice, L1210 leukemia ip, survival T/C
# Test: NCI In Vivo Anticancer Drug Screen. Data for tumor model L1210 Leukemia (intraperitoneal) in CD2F1 (CDF1) mice
# Conditions: endpoint: mean survival time, higher = longer survival
# Method in brief: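 Compound-dosed mice with transplantable tumor versus matched vehicle controls; endpoint ratio T/C reported.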
# [1] = dose: 25.0 mg/kg/injection, schedule: Q01DX009 (ip), vehicle: Klucel (hydroxypropylcellulose) (HPC)
# [2] = dose: 50.0 mg/kg/injection, schedule: Q01DX009 (ip), vehicle: Klucel (hydroxypropylcellulose) (HPC)
# [3] = dose: 100.0 mg/kg/injection, schedule: Q01DX009 (ip), vehicle: Klucel (hydroxypropylcellulose) (HPC)
# [4] = dose: 100.0 mg/kg/injection, schedule: Q01DX001 (ip), vehicle: saline with Tween-80
# [5] = dose: 75.0 mg/kg/injection, schedule: Q01DX001 (ip), vehicle: saline with Tween-80
# [6] = dose: 150.0 mg/kg/injection, schedule: Q01DX001 (ip), vehicle: saline with Tween-80
# [7] = dose: 100.0 mg/kg/injection, schedule: Q04DX003 (ip), vehicle: saline with Tween-80
# [8] = dose: 200.0 mg/kg/injection, schedule: Q04DX003 (ip), vehicle: saline with Tween-80
# [9] = dose: 400.0 mg/kg/injection, schedule: Q04DX003 (ip), vehicle: saline with Tween-80
# [10] = dose: 3.12 mg/kg/injection, schedule: Q01DX009 (ip), vehicle: Klucel (hydroxypropylcellulose) (HPC)
# [11] = dose: 6.25 mg/kg/injection, schedule: Q01DX009 (ip), vehicle: Klucel (hydroxypropylcellulose) (HPC)
# [12] = dose: 12.5 mg/kg/injection, schedule: Q01DX009 (ip), vehicle: Klucel (hydroxypropylcellulose) (HPC)
# [13] = dose: 75.0 mg/kg/injection, schedule: Q01DX001 (ip), vehicle: saline
# [14] = dose: 100.0 mg/kg/injection, schedule: Q01DX001 (ip), vehicle: saline
smiles,measurement,setting,value
[Cl][Pt+2][Cl].[NH-]Cc1ccccc1C[NH-],T/C,"dose: 3.13 mg/kg/injection, schedule: Q04DX003 (ip), vehicle: dextrose",114 % of control
same,T/C,"dose: 6.25 mg/kg/injection, schedule: Q04DX003 (ip), vehicle: dextrose",116 % of control
same,T/C,"dose: 12.5 mg/kg/injection, schedule: Q04DX003 (ip), vehicle: dextrose",124 % of control
same,T/C,"dose: 25.0 mg/kg/injection, schedule: Q04DX003 (ip), vehicle: dextrose",114 % of control
same,T/C,"dose: 50.0 mg/kg/injection, schedule: Q04DX003 (ip), vehicle: dextrose",86 % of control
O=C(/C(=C/c1ccccc1)CN1CCOCC1)c1ccccc1,T/C,[1],101 % of control
same,T/C,[2],105 % of control
same,T/C,[3],91 % of control
O=c1[nH]c(NCCCCc2ccccc2)c(Br)c(=O)[nH]1,T/C,[4],91 % of control
CC1(C)COC2(c3ccccc3)N1C(=C(Cl)Cl)OC(=O)C2(Cl)Cl (stereo unspecified),T/C,[5],101 % of control
same,T/C,[6],90 % of control
same,T/C,"dose: 300.0 mg/kg/injection, schedule: Q01DX001 (ip), vehicle: saline with Tween-80",109 % of control
CN(CCO)C1=C(N2CC2)C(=O)C(N(C)CCO)=C(N2CC2)C1=O,T/C,"dose: 0.5 mg/kg/injection, schedule: Q01DX009 (ip), vehicle: saline",115 % of control and 117 % of control
same,T/C,"dose: 1.0 mg/kg/injection, schedule: Q01DX009 (ip), vehicle: saline",155 % of control
same,T/C,"dose: 1.5 mg/kg/injection, schedule: Q01DX009 (ip), vehicle: saline",201 % of control and 211 % of control
COc1cc2c(c(OC)c1OC)-c1ccc(SC)c(=O)cc1[C@@H](NC(=O)NCCCl)CC2,T/C,"dose: 1.56 mg/kg/injection, schedule: Q01DX005 (ip), vehicle: water",103 % of control
same,T/C,"dose: 3.13 mg/kg/injection, schedule: Q01DX005 (ip), vehicle: water",103 % of control
same,T/C,"dose: 6.25 mg/kg/injection, schedule: Q01DX005 (ip), vehicle: water",122 % of control
same,T/C,"dose: 6.25 mg/kg/injection, schedule: Q01DX009 (ip), vehicle: water",123 % of control
same,T/C,"dose: 12.5 mg/kg/injection, schedule: Q01DX005 (ip), vehicle: water",117 % of control
same,T/C,"dose: 12.5 mg/kg/injection, schedule: Q01DX009 (ip), vehicle: water",123 % of control
COC(=O)Nc1ccc(OS(=O)(=O)N(C)C)cc1,T/C,[7],103 % of control
same,T/C,[8],98 % of control
same,T/C,[9],103 % of control
Cc1ccc(S(=O)(=O)NS(=O)(=O)c2ccc(C)cc2)cc1,T/C,"dose: 25.0 mg/kg/injection, schedule: Q04DX003 (ip), vehicle: Klucel (hydroxypropylcellulose) (HPC)",106 % of control
same,T/C,"dose: 50.0 mg/kg/injection, schedule: Q04DX003 (ip), vehicle: Klucel (hydroxypropylcellulose) (HPC)",100 % of control
same,T/C,"dose: 75.0 mg/kg/injection, schedule: Q04DX003 (ip), vehicle: saline sonified",97 % of control
same,T/C,"dose: 100.0 mg/kg/injection, schedule: Q04DX003 (ip), vehicle: Klucel (hydroxypropylcellulose) (HPC)",88 % of control
same,T/C,"dose: 150.0 mg/kg/injection, schedule: Q04DX003 (ip), vehicle: saline sonified",95 % of control
same,T/C,"dose: 300.0 mg/kg/injection, schedule: Q04DX003 (ip), vehicle: saline sonified",101 % of control
[I][Pt+2][I].[NH-]c1ccc(F)cc1.[NH-]c1ccc(F)cc1,T/C,"dose: 3.13 mg/kg/injection, schedule: Q04DX003 (ip), vehicle: distilled water + Tween-80",108 % of control
same,T/C,"dose: 6.25 mg/kg/injection, schedule: Q04DX003 (ip), vehicle: distilled water + Tween-80",108 % of control
same,T/C,"dose: 12.5 mg/kg/injection, schedule: Q04DX003 (ip), vehicle: distilled water + Tween-80",98 % of control
same,T/C,"dose: 25.0 mg/kg/injection, schedule: Q04DX003 (ip), vehicle: distilled water + Tween-80",101 % of control
same,T/C,"dose: 50.0 mg/kg/injection, schedule: Q04DX003 (ip), vehicle: distilled water + Tween-80",108 % of control
same,T/C,"dose: 100.0 mg/kg/injection, schedule: Q04DX003 (ip), vehicle: distilled water + Tween-80",87 % of control
CCc1ccc(C2=C(O)C(=O)C(c3ccccc3)=C(O)C2=O)cc1,T/C,[10],97 % of control
same,T/C,[11],100 % of control
same,T/C,[12],100 % of control
same,T/C,[1],97 % of control
same,T/C,[2],100 % of control
same,T/C,[3],95 % of control
COc1ccc(/C=N/O)cc1,T/C,[13],102 % of control
same,T/C,"dose: 150.0 mg/kg/injection, schedule: Q01DX001 (ip), vehicle: saline",100 % of control
same,T/C,"dose: 300.0 mg/kg/injection, schedule: Q01DX001 (ip), vehicle: saline",101 % of control
COc1cc2c(cc1OC)C(Cc1ccccc1NC(=O)c1ccc(C(=O)Nc3ccccc3CC3c4cc(OC)c(OC)cc4CCN3C)cc1)N(C)CC2 (stereo unspecified),T/C,[14],97 % of control
same,T/C,"dose: 200.0 mg/kg/injection, schedule: Q01DX001 (ip), vehicle: saline",94 % of control
same,T/C,"dose: 400.0 mg/kg/injection, schedule: Q01DX001 (ip), vehicle: saline",91 % of control
CC(C)(C)C(Br)C(=O)O (stereo unspecified),T/C,[5],97 % of control
same,T/C,[6],97 % of control
O=C(Nc1ccccc1C(F)(F)F)OCCOc1ccc(Br)cc1,T/C,[3],100 % of control
same,T/C,"dose: 200.0 mg/kg/injection, schedule: Q01DX009 (ip), vehicle: Klucel (hydroxypropylcellulose) (HPC)",103 % of control
same,T/C,"dose: 400.0 mg/kg/injection, schedule: Q01DX009 (ip), vehicle: Klucel (hydroxypropylcellulose) (HPC)",87 % of control
ClCCN(CCCl)c1ccc(CCN2CCCCC2)cc1,T/C,[10],106 % of control
same,T/C,[11],106 % of control
same,T/C,[12],121 % of control and 108 % of control
same,T/C,[1],118 % of control
CCCCOS(=O)(=O)c1ccc(N)cc1,T/C,[7],92 % of control
same,T/C,[8],98 % of control
same,T/C,[9],97 % of control
CCCCCC/C=N\N=C(N)N,T/C,[13],103 % of control
[O]=[Sb]([c]1ccccc1)([c]1ccccc1)[c]1ccccc1,T/C,[7],101 % of control
O=C(O)C(=O)O.[Mn],T/C,[7],100 % of control
same,T/C,[8],100 % of control
same,T/C,[9],96 % of control
CCCCCCCCCCCCCCCOc1ccc2ccccc2c1,T/C,"dose: 100.0 mg/kg/injection, schedule: Q01DX001 (ip), vehicle: Klucel (hydroxypropylcellulose) (HPC)",102 % of control
same,T/C,"dose: 200.0 mg/kg/injection, schedule: Q01DX001 (ip), vehicle: Klucel (hydroxypropylcellulose) (HPC)",94 % of control
same,T/C,"dose: 400.0 mg/kg/injection, schedule: Q01DX001 (ip), vehicle: Klucel (hydroxypropylcellulose) (HPC)",90 % of control
O/N=C(/CN1CCOCC1)c1ccccc1,T/C,"dose: 100.0 mg/kg/injection, schedule: Q01DX009 (ip), vehicle: saline with Tween-80",97 % of control
same,T/C,[7],102 % of control
same,T/C,"dose: 200.0 mg/kg/injection, schedule: Q01DX009 (ip), vehicle: saline with Tween-80",94 % of control
same,T/C,[8],96 % of control
same,T/C,"dose: 400.0 mg/kg/injection, schedule: Q01DX009 (ip), vehicle: saline with Tween-80",96 % of control
same,T/C,[9],102 % of control
CC(=O)Nc1nc(Br)c2ccccc2c1-c1ccc(N(CCO)CCO)cc1,T/C,"dose: 25.0 mg/kg/injection, schedule: Q04DX003 (ip), vehicle: DMSO",90 % of control
same,T/C,"dose: 50.0 mg/kg/injection, schedule: Q04DX003 (ip), vehicle: DMSO",90 % of control
same,T/C,"dose: 100.0 mg/kg/injection, schedule: Q04DX003 (ip), vehicle: DMSO",94 % of control
same,T/C,"dose: 200.0 mg/kg/injection, schedule: Q04DX003 (ip), vehicle: DMSO",87 % of control
CN1CC(=O)N=C1N.CN1CC(=O)N=C1N.[Cl][Pt][Cl],T/C,"dose: 3.13 mg/kg/injection, schedule: Q04DX003 (ip), vehicle: water",102 % of control
same,T/C,"dose: 6.25 mg/kg/injection, schedule: Q04DX003 (ip), vehicle: water",96 % of control
same,T/C,"dose: 12.5 mg/kg/injection, schedule: Q04DX003 (ip), vehicle: water",96 % of control
same,T/C,"dose: 25.0 mg/kg/injection, schedule: Q04DX003 (ip), vehicle: water",100 % of control
same,T/C,"dose: 50.0 mg/kg/injection, schedule: Q04DX003 (ip), vehicle: water",102 % of control
same,T/C,"dose: 100.0 mg/kg/injection, schedule: Q04DX003 (ip), vehicle: water",92 % of control
COc1cc(C2=NCCO2)cc(OC)c1OC,T/C,[7],103 % of control
same,T/C,[8],93 % of control
same,T/C,[9],93 % of control
C1CCC(CCC2CCCC[N-]2)[N-]C1.[I][Co][I] (stereo unspecified),T/C,"dose: 25.0 mg/kg/injection, schedule: Q01DX001 (ip), vehicle: saline with Tween-80",95 % of control
same,T/C,"dose: 50.0 mg/kg/injection, schedule: Q01DX001 (ip), vehicle: saline with Tween-80",86 % of control
same,T/C,[4],123 % of control
same,T/C,[14],103 % of control
